Legend:
Type in all cases: cell-based
SU-DHL-6 = assay: Cell viability panel, ATPlite 1Step; settings: Homo sapiens, Diffuse large B-cell lymphoma, 72 h exposure, read-out: Compound EC50
Outline: (§1)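 ATPlite lines: 200-6400 cells/well in ATCC-recommended medium, 8 concentrations (0.04-32 μM), 72 h, ATP luminescence for viability. CyQUANT lines: seeded 24 h before, 5,000-40,000 cells/well in RPMI 1640/10% FBS/2 mM L-glutamine, 0.04-1 μM, 48 h at 37° C.; EC50 from growth-normalized signal versus time zero.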

DU 145 = assay: Cell viability panel, ATPlite 1Step; settings: Homo sapiens, Prostate carcinoma, 72 h exposure, read-out: Compound EC50
Outline: as §1

BxPC-3 = assay: Cell viability panel, ATPlite 1Step; settings: Homo sapiens, Pancreatic ductal adenocarcinoma, 72 h exposure, read-out: Compound EC50
Outline: as §1

RT4 = assay: Cell viability panel, ATPlite 1Step; settings: Homo sapiens, RT-4, Bladder carcinoma, 72 h exposure, read-out: Compound EC50
Outline: as §1

SU-DHL-1 = assay: Cell viability panel, ATPlite 1Step; settings: Homo sapiens, Anaplastic large cell lymphoma, 72 h exposure, read-out: Compound EC50
Outline: as §1

BT-20 = assay: Cell viability panel, ATPlite 1Step; settings: Homo sapiens, Invasive ductal carcinoma, 72 h exposure, read-out: Compound EC50
Outline: as §1

5637 = assay: Cell viability panel, ATPlite 1Step; settings: Bladder carcinoma, 72 h exposure, read-out: Compound EC50
Outline: as §1

SW948 = assay: Cell viability panel, ATPlite 1Step; settings: Homo sapiens, Colon adenocarcinoma, 72 h exposure, read-out: Compound EC50
Outline: as §1

MG-63 = assay: Cell viability panel, ATPlite 1Step; settings: Homo sapiens, Osteosarcoma, 72 h exposure, read-out: Compound EC50
Outline: as §1

KLE = assay: Cell viability panel, ATPlite 1Step; settings: Homo sapiens, Endometrial adenocarcinoma, 72 h exposure, read-out: Compound EC50
Outline: as §1

NCCIT = assay: Cell viability panel, ATPlite 1Step; settings: Homo sapiens, Testicular embryonal carcinoma, 72 h exposure, read-out: Compound EC50
Outline: as §1

HCT 116 = assay: Cell viability panel, ATPlite 1Step; settings: Homo sapiens, Colon carcinoma, 72 h exposure, read-out: Compound EC50
Outline: as §1

Hs 766T = assay: Cell viability panel, ATPlite 1Step; settings: Hs766T, Pancreatic adenocarcinoma, 72 h exposure, read-out: Compound EC50
Outline: as §1

HT-1080 = assay: Cell viability panel, ATPlite 1Step; settings: Homo sapiens, Fibrosarcoma, 72 h exposure, read-out: Compound EC50
Outline: as §1

ACHN = assay: Cell viability panel, ATPlite 1Step; settings: Homo sapiens, Papillary renal cell carcinoma, 72 h exposure, read-out: Compound EC50
Outline: as §1

[1] = system: UPR branches (PERK, ATF6 and IRE1alpha); assay: UPR activation in MM1.S cells (immunoblot, RT-PCR); settings: 200 nM
Protocol: MM1.S cells were treated with 200 nM of Compound B1 for the indicated time points. Following the stated incubation periods the cells were harvested, lysed and resolved on SDS-PAGE gel. Proteins were transferred to PVDF membrane and immunoblotted with the indicated antibodies: FIG. 7A: anti phospho JNK, FIG. 7B: anti JNK, FIG. 7C: anti ATF6. FIG. 7D: anti phospho eIF2alpha, FIG. 7E: anti eIF2alpha, FIG. 7F: anti ATF4. XBP1 splicing was performed on cDNA (FIG. 7G), RNA was extracted cDNA was generated by RT-PCR and XPB1 transcript was amplified by PCR with gene specific primers. Splicing was detected by differential migration of XBP1 transcript on agarose gel. Transcriptional changes of CHOP (FIG. 7K) and ATF4 (FIG. 7J) were estimated by quantitative PCR with gene specific primers. Relative gene expression levels were normalized to GAPDH. Cleaved form of ATF6 and spliced XBP1 is indicated with arrow.
Protein analysis by Western blot. At the end of treatment period, the cells were lysed with M-PER mammalian protein extraction reagent (ThermoFisher Scientific) supplemented with protease inhibitors. Equal protein amounts were resolved on pre-cast SDS-PAGE (ThermoFisher Scientific) and transferred to a PVDF membrane. The membrane was immunoblotted with antibodies as indicated. The following antibodies were used: Ub MAb (SC-8017, Santa-Cruz), ATF4, ATF6, phospho JNK, JNK (Cell signaling); eIF2alpha, phospho eIF2alpha (Novus).
RT-PCR: MM cells were treated with compounds as indicated. Total RNA was extracted using RNAeasy kit (QIAGEN) and cDNA was synthesized using reverse transcriptase (Quantaces biosciences). mRNA levels of ATF4 and CHOP were determined by quantitative PCR using a StepOnePlus™ Real Time PCR system (Life Technologies) with gene specific assays (Thermo Scientific). XBP splicing were addressed by differential migration of XBP-1 gene transcript full size versus spliced form on 2% Agarose gel.

OVCAR-4 = assay: NCI60 screen cytotoxicity; settings: Homo sapiens, Ovarian cancer, read-out: Compound B1 EC50
MALME-3M = assay: NCI60 screen cytotoxicity; settings: Homo sapiens, Melanoma, read-out: Compound B1 EC50
SW-620 = assay: NCI60 screen cytotoxicity; settings: Homo sapiens, Colon cancer, read-out: Compound B1 EC50

Question: With CN(C)CCCS(=O)(=O)N1C/C(=C\c2ccc(C#N)cc2)C(=O)/C(=C/c2ccc(C#N)cc2)C1 [Compound AA] as the compound, how does the EC50 (SU-DHL-6) read?
Answer: < 300 nM

Question: What about the EC50 (DU 145) of the same compound?
Answer: 300 to 1000 nM

Question: And the EC50 (BxPC-3)?
Answer: < 300 nM

Question: And the EC50 (RT4)?
Answer: 300 to 1000 nM

Question: What about the EC50 (SU-DHL-1) of the same compound?
Answer: < 300 nM

Question: And the EC50 (BT-20)?
Answer: ≥ 1000 nM

Question: What about the EC50 5637 of the same compound?
Answer: < 300 nM

Question: What about the EC50 (SW948) of the same compound?
Answer: < 300 nM

Question: What about the EC50 (MG-63) of the same compound?
Answer: < 300 nM

Question: What about the EC50 (KLE) of the same compound?
Answer: ≥ 1000 nM

Question: And the EC50 (NCCIT)?
Answer: < 300 nM

Question: And the EC50 (HCT 116)?
Answer: < 300 nM

Question: What about the EC50 (Hs 766T) of the same compound?
Answer: 300 to 1000 nM

Question: And the EC50 (HT-1080)?
Answer: < 300 nM

Question: And the EC50 (ACHN)?
Answer: 300 to 1000 nM

Question: Which results are given for CN(C)CC(=O)NCC(=O)N1C/C(=C\c2ccc(C#N)cc2)C(=O)/C(=C/c2ccc(C#N)cc2)C1 [Compound B1]?
Answer: eIF2alpha phosphorylation (PERK activation) ([1]; after 1 hr of treatment): increases eI2Falpha phosphorylation; XBP splicing ([1]; differential migration of XBP gene transcript): Spliced XBP was detected; ATF6 full size form ([1]; immunoblot): short term upregulation of ATF6 full size form followed by a rapid decline; phosphorylated JNK ([1]; immunoblot, no change in total protein levels): significant upregulation in phosphorylated JNK; ATF4 and CHOP transcription (quantitative PCR) ([1]; peaking at 3 hr post treatment): transcriptional increase of both ATF4 and CHOP; EC50 (OVCAR-4): 300 to 1000 nM; EC50 (MALME-3M): < 300 nM; EC50 (SW-620): < 300 nM
